# Source: patent US12060310B2, “Compositions and methods of using itaconic acid derivatives” (ERGON PHARMACEUTICALS, LLC, priority 2018, dated 2024)
# Entries after “also recorded” stand apart in the source; their conditions may differ.
# Key:
# [1] = tested on: C6-IRG1-9 rat glioma cells; assay: C6-IRG1-9 rat glioma cell proliferation (CyQuant); type: cell-based; conditions: various concentrations, 48 hrs; FIG. 3
# Experimental: Tumor Cell Proliferation Assay. This assay was used to assess the anti-tumor properties of a therapeutic agent in vitro. In a typical proliferation assay, cells were cultured to near confluency in the appropriate media. Subsequently, the cells were trypsinized and plated onto 96-well plates at 2,000 or 5,000 cell per well. The cells were cultured for 48 to 96 hours in the presence or absence of the therapeutic agent. Cell proliferation was then determined using spectrophotometry (MTT assay, BrdU assay) or fluorimetry (Cyquant assay).
# Inhibition of C6-IRG1-9 Rat Glioma cell proliferation. C6-IRG1-9 cells are rat C6 glioma cells that have been transfected to overexpress IRG1. Overexpression of IRG1 is maintained by culturing the cells in DMEM media containing 0.55 μg/mL puromycin. For the proliferation assays, the cells were plated onto a 96-well plate at a density of 2,000 cells/well. The cells were allowed to adhere overnight; they were subsequently treated with various concentrations of compounds of Formula (2) for 48 hrs. At the end of the incubation period, the number of cells is assessed using the CyQuant Cell Proliferation kit (Thermo Fisher) according to the manufacturer's instructions. The results, shown in FIG. 3, indicate that compounds of Formula (2) are able to reduce or abrogate growth of C6-IRG1-9 cells. In FIG. 3, cell proliferation is expressed as % Untreated Control, defined as: (t−s)*100/(c−s), where t is the number of cells present in a treated well at the end of the incubation period, c is the number of cells present in an untreated well at the end of the incubation period, and s is the initial number of cells in the wells prior to initiation of treatment.
# [2] = tested on: trimethylated lysine site 4 of histone 3 (H3K4me3); assay: Epigenetic modification, Western immunoblotting of H3K4me3; type: cell-based, human; conditions: 10 μM, 72 hrs, TCR-activated hCD8+ T cells; FIG. 5
# Experimental: Epigenetic Modifications. The ability of a therapeutic agent to alter acetylation and/or methylation of histones was assessed by Western Immunoblotting. Briefly, immune and other type cells were collected after being exposed to the therapeutic agent or vehicle control for a specific period of time, typically 24-72 hrs. They were then lysed and cell lysates from control and treated cells contained equal amounts of proteins were subjected to SDS-PAGE electrophoresis. The presence of acetylated and methylated histone sites was determined by Western Immunoblotting using appropriate antibodies.
# Epigenetic Modification. TCR-activated hCD8^+ T cells were exposed to 0 or 10 µM Compound (6) for 72 hrs prior to lysing. Equal amounts of cell lysates were subjected to gel electrophoresis and Western immunoblotting against trimethylated lysine site 4 of histone 3 (H3K4me3). The experiment also included cell lysates from naïve cells. Image J was used for protein quantification. Western immunoblotting against histone 3 (H3) was also performed for normalization purposes. […] Exposure of the hCD8^+ T cells to 10 μM Compound (6) led to the depletion of trimethylated H3K4. H3K4me3 is commonly associated with activation of transcription.
# M-MDSCs in CT26 tumors = assay: Tumor immunophenotyping of CT26 tumors (MDSCs); type: in vivo, mouse; conditions: 0.2 mg/kg ip, twice a day; tumors 250-1500 mm^3; FIG. 7
# Experimental: Tumor Immunophenotyping. To determine the effect of a therapeutic agent on a specific immune cell type in vivo, syngeneic tumor models were employed. In a typical experiment, tumors were allowed to grow to a certain size and were then treated for a specific number of days prior to termination. At the end of the experiment, animals were euthanized, tumors were excised and single cell suspensions were immediately obtained through dissociation of tumor tissues with collagenase. Tumor cell suspensions were then subject to FACS analysis in order to determine the presence of various biomarkers.
# Tumor Immunophenotyping of CT26 Tumors. CT26-tumor bearing mice treated with either vehicle control or 0.2 mg/kg Compound (6) (ip, twice a day) were euthanized when the tumors had reached a size of 250-1500 mm^3. Tumors were excised and single cell suspensions were obtained using the tumor dissociation kit from Miltenyi Biotec per manufacturer's instructions. The suspensions were analyzed for the presence of MDSCs.
# [3] = tested on: TCR-activated hCD8+ T cells; assay: hCD8+ T cell differentiation into effector T cells (IFNγ and GZMB release, ELISA); type: cell-based, human
# Experimental: Differentiation of T Cells. The ability of T cells to differentiate from a naïve to an effector state was assessed by measuring the levels of IFNγ or GZMB synthesis following activation of the cells using a cocktail of anti-CD2/anti-CD3/anti-CD28 antibodies. Expression of IFNγ, GZMB, and other effector cytokines was measured by determining their concentration in the conditioned media 24-72 hrs after initiation of activation or by estimating the % cells expressing these cytokines using fluorescence-activated cell sorting (FACS).
# Augmentation of hCD8^+ T Cell Differentiation into Effector T Cells. Naïve CD8+ T cells were isolated from human buffy coats using magnetic separation and the appropriate kit from Miltenyi Biotec. Cells were then activated using a cocktail of anti-CD2/anti-CD3/anti-CD28 antibodies. Differentiation of the cells into effector T cells was assessed by determining the levels of IFNγ and GZMB released into the media at 24 and 72 hrs, respectively using appropriate ELISA kits. Cytokine concentrations were normalized per number of cells present and expressed as % Untreated Control.
# IRG1 = target: T1, IRG1 (Homo sapiens, UniProt A6NK06); assay: Itaconic acid synthesis by LPS-stimulated macrophages (inhibition of IRG1), GC-MS; type: cell-based; conditions: LPS-stimulated hMDMs; pretreated 50, 100, 500 μM for 15 min, LPS 8 hrs; FIG. 1
# T1 construct: Human monocytes, isolated from peripheral blood and differentiated into macrophages; endogenous in cells; host or cells: human monocyte-derived macrophages (hMDMs), M-CSF differentiated, LPS stimulated
# T1 sequence (A6NK06 1-481): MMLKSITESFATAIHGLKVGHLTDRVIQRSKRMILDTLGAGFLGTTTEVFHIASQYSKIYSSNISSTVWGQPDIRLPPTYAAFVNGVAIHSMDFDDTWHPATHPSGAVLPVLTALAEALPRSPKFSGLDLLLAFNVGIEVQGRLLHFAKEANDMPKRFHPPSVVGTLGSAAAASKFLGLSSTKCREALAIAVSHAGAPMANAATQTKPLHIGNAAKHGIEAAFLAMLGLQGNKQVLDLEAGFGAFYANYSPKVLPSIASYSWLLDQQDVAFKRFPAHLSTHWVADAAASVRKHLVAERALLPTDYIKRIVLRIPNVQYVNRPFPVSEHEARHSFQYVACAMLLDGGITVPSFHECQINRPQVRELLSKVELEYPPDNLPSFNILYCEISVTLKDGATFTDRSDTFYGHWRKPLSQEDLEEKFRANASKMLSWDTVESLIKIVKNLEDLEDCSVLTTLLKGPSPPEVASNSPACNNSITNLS
# Experimental: Inhibition of IRG1. Itaconic acid levels are a measure of IRG1 expression/activity. To determine the activity of IRG, hMDMs were stimulated with 100 ng/ml LPS for 8 hrs in the presence or absence of the therapeutic agent. Gas chromatography-mass spectroscopy (GC-MS) was used to estimate the intracellular and extracellular concentration of the itaconic acid. In a typical assay, 1-5×10^6 cells were plated onto a 6-well plate and allowed to adhere overnight. The cells were then stimulated with 0.1-1 μg/mL LPS in the presence or absence of the compound of interest for 8 hrs. The cells were then washed and metabolites were extracted using methanol/water and acetonitrile additions. The aqueous phase of the mixture was dried and metabolites present were derivatized prior to the detection by GC-MS.
# Itaconic Acid Synthesis by LPS-Stimulated Macrophages after Treatment with Compound (6). Human monocytes, isolated from peripheral blood and differentiated into macrophages in the presence of 100 ng/ml monocyte colony-stimulating factor (M-CSF) for 5 days, were plated onto a 6-well plate at a density of 1×10^6 cells/well. The cells were allowed to adhere overnight. […] Derivatized metabolites were analyzed by GC-MS. The amount of itaconic acid present in the samples was determined after peak integration. […]
# [4] = tested on: TNFα secretion from LPS-stimulated human monocyte derived macrophages (hMDMs); assay: Inhibition of TNFα secretion (in vitro inflammation assay), ELISA; type: cell-based; conditions: 1 μg/mL LPS, 6 h, concentrations ≥500 μM, FIG. 2
# Experimental: In Vitro Inflammation Assay. In vitro inflammation was assessed by measuring the concentration of TNFα in the conditioned media of macrophages stimulated with 0.1-1 μg/mL LPS in the presence or absence of the compound of interest after 4-6 hrs.
# Inhibition of TNFα secretion. hMDMs were pretreated with various concentrations of Compound (6) for 15 min and then stimulated with 1 μg/mL LPS. Conditioned media were collected 6 h later and TNFα concentrations were determined by ELISA.
# [5] = tested on: CT26 mouse colorectal tumors; assay: Survival of CT26 tumor-bearing mice (in vivo anti-tumor effect)
# Experimental: In Vivo Anti-Tumor Effect. The anticancer properties of the therapeutic agent were evaluated in vivo by determining the ability of the agent to suppress tumor growth and/or increase survival of tumor-bearing animals. In a typical experiment, 0.1-1×10^6 tumor cells, suspended in PBS containing 20% Matrigel, were injected subcutaneously in the right flank of each mouse. When the tumors became palpable, the animals were randomized into different groups and treatment began. In vivo tests routinely included a vehicle control group and different doses and/or routes of administration of the therapeutic agent. Tumor growth was assessed using calipers and the following formula: Tumor Volume=length×width×width×½
# The Kaplan-Meier analysis was used to estimate the survival probability of the tumor-bearing animals.
# C57BL/6 mice were injected subcutaneously in the right flank with 1×10^5 CT26 mouse colorectal tumor cells, suspended in PBS containing 20% Matrigel. The tumors were allowed to grow to ˜100 mm^3. The mice were randomized into two groups (n=6 animals/group): one group received vehicle control and the other group was treated with i.p. injections of 0.2 mg/kg Compound (6) twice a week (Tuesday-Thursday). The experiment continued for 27 days, at which point the mortality rate of control animals was 80%. […] The experiment was repeated (FIG. 6B). In FIG. 6B, treated animals received oral administrations of 3 mg/kg Compound (6) twice a day.
# [6] = tested on: TCR-activated hCD8+ T cells; assay: CD8+ T cell proliferation (CFSE dilution, flow cytometry); type: cell-based, human; conditions: 10 nM; versus untreated TCR-activated control cells; FIG. 4
# Experimental: Augmentation of CD8^+ T Cell Proliferation. Naïve hCD8^+ T cells were isolated from commercially available buffy coats using magnetic separation and the appropriate kit from Miltenyi Biotec. Cells were then subject to TCR activation using a cocktail of anti-CD2/anti-CD3/anti-CD28 antibodies. Untreated control and treated cells were included in the experiment. The cells were cultured for 72 hrs in TexMACS media (Miltenyi Biotec) without IL-2 and for an additional 48 hrs in TexMACS media containing 20 U human IL-2/mL. Cell division was assessed by flow cytometry using the carboxyfluorescein succimidyl ester (CFSE) dilution method.
# [7] = 3 mg/kg oral twice a day, end of experiment
smiles,measurement,setting,value
"O=C(O)CC(=Cc1ccc(F)cc1)C(=O)O [Compound (5), 2-[(4-fluorophenyl)methylidene]butanedioic acid]",cell proliferation of C6-IRG1-9 cells,[1],inhibition of proliferation
"C=CCC(C(=O)O)/C(=C/c1ccc(F)cc1)C(=O)O (stereo not drawn) [(7), 2-[(4-flurophenyl)methylidene]-3-(prop-2-ene-1-yl)butanedioic acid]",cell proliferation of C6-IRG1-9 cells,[1],inhibition of proliferation
"O=C(O)CC(=Cc1ccccc1)C(=O)O [(4), 2-(phenylmethylidene)butanedioic acid]",cell proliferation of C6-IRG1-9 cells,[1],inhibition of proliferation
"CC(C)=C(CC(=O)O)C(=O)O [(3), 2-(propan-2-ylidene)butanedioic acid]",cell proliferation of C6-IRG1-9 cells,[1],inhibition of proliferation
"O=C(O)/C(=C\c1ccc(F)cc1)C(Cc1ccccc1)C(=O)O (stereo not drawn) [Compound (6), 2-benzyl-3-[(4-flurophenyl)methylidene]butanedioic acid]",trimethylated H3K4 (H3K4me3/H3 ratio),[2],depletion
same,intratumoral frequency of M-MDSCs,M-MDSCs in CT26 tumors,significantly reduces
same,cell proliferation of C6-IRG1-9 cells,[1],inhibition of proliferation
same,IFNγ synthesis,[3]; high (>100 μM) concentrations,decrease
same,production of GZMB,[3]; low concentrations,increase production
same,synthesis of INFγ following TCR activation,"[3]; low concentrations, range of 0.1 nM to 100 µM",increased synthesis
same,extracellular levels of itaconic acid,IRG1,suppressed
same,intracellular levels of itaconic acid,IRG1,suppressed
same,secretion of TNFα,[4],inhibits in vitro inflammation; also recorded: reduced secretion
same,survival (Kaplan-Meier) of CT26 tumor-bearing mice,"[5]; 0.2 mg/kg i.p. twice a week, 27 days, versus vehicle control, FIG. 6A",survival advantage
same,animals with complete tumor regression,[5]; [7],⅙
same,mice exhibiting slower tumor growth,[5]; [7],⅚
same,survival of CT26 tumor-bearing mice,"[5]; 3 mg/kg orally twice a day, FIG. 6B",increased survival
same,proliferation of hCD8+ T cells,[6],increased proliferation
